Data from patent publication US6420558B1, “Aminopiperidine derivates as integrin αvβ3 antagonists” (Meiji Seika Kaisha, Ltd., priority 1998, dated 2002).

Tests used:
[1] = target: T1, integrin αvβ3 (vitronectin receptor purified from the human placenta) (Homo sapiens, UniProt P05106+P06756); experiment: αvβ3 binding assay (vitronectin-vitronectin receptor binding assay); conditions: vitronectin binding to human placenta vitronectin receptor; read-out: integrin αvβ3 antagonistic activity, IC50 value
T1 construct: a vitronectin receptor (protein content: 118 μg/ml) purified from the human placenta; from tissue; host or cells: human placenta
T1 sequence (P06756 31-889 limits assumed): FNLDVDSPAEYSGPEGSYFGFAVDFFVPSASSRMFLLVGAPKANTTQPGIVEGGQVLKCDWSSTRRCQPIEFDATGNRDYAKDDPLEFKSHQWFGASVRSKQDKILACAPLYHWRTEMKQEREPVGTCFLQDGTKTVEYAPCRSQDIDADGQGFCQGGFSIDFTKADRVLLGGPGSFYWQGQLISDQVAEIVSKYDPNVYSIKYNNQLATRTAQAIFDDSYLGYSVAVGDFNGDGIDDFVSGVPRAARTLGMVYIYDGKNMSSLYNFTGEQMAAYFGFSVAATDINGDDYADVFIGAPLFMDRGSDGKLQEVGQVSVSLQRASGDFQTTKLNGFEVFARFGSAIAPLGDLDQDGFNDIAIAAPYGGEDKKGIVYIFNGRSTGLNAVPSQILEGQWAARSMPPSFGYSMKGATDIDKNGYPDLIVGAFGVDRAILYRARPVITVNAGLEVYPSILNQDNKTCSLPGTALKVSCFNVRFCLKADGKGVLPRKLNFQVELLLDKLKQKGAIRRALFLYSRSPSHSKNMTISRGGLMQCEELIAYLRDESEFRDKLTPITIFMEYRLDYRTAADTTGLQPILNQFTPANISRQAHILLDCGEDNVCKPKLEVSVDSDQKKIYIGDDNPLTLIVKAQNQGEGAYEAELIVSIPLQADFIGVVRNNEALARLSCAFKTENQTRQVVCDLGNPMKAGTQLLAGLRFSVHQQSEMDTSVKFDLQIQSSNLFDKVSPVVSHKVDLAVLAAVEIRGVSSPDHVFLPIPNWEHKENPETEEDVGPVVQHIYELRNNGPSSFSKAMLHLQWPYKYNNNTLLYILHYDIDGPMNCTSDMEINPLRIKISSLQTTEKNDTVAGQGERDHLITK
T1 sequence (P06756 891-1048 limits assumed): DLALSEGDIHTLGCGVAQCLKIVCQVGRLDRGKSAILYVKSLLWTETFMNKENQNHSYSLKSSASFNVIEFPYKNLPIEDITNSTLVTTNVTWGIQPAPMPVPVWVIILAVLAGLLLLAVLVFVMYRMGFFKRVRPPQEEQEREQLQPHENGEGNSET
T1 sequence (P05106 27-788): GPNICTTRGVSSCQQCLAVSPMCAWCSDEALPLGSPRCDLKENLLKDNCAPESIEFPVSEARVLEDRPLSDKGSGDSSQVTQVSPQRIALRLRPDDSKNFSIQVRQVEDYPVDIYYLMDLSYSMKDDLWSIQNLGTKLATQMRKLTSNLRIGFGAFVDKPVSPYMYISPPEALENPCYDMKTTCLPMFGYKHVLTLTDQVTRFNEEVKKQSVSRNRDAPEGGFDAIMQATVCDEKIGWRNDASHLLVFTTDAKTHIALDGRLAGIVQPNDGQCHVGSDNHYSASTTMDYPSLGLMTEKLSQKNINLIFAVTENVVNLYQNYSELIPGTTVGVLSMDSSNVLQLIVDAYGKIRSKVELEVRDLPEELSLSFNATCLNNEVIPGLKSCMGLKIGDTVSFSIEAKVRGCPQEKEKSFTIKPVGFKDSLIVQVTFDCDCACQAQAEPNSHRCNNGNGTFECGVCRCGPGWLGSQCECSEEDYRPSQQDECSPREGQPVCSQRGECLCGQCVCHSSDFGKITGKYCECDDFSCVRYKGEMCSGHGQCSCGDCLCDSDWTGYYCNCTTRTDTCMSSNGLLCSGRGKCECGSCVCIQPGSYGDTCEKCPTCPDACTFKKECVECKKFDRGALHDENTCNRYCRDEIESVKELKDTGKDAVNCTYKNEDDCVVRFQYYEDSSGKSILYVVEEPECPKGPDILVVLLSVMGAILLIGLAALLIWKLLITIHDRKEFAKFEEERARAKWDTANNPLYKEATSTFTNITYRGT

GP IIb/IIIa = GP IIb/IIIa (Homo sapiens, UniProt P05106+P08514); experiment: GP IIb/IIIa antagonistic activity (method of Pharmacological Test 2 in WO 94/21599); format: binding
Chain of GP IIb/IIIa (P08514 32-887 limits assumed): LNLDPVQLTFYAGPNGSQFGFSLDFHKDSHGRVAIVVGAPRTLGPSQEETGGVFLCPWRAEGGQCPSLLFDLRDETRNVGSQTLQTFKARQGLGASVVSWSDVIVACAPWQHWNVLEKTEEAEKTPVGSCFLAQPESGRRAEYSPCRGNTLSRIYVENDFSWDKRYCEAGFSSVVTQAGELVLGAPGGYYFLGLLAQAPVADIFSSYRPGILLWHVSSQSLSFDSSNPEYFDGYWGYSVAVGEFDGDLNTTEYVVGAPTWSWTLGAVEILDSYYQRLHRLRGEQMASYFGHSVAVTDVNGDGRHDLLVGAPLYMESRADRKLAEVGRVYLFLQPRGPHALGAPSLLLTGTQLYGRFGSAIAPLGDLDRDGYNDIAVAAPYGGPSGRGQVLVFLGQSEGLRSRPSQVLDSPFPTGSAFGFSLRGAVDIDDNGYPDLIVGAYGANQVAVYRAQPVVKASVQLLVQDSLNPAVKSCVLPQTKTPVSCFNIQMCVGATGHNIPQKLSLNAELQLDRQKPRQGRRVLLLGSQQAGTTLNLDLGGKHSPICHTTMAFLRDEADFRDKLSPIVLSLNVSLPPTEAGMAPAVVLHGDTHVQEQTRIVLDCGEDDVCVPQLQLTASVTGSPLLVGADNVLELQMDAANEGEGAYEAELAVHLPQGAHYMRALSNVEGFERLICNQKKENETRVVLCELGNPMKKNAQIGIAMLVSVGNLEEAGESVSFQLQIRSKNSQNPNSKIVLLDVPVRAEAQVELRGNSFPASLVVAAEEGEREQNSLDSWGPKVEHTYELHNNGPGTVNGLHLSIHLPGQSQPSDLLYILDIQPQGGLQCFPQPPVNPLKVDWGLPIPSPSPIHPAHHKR
Chain of GP IIb/IIIa (P08514 891-1039 limits assumed): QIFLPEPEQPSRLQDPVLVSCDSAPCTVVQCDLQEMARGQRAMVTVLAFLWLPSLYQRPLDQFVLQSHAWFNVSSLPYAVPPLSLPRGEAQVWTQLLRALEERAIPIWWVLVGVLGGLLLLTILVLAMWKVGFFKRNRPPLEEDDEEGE
Chain of GP IIb/IIIa (P05106 27-788): as the sequence (P05106 27-788) above
Experimental: GP IIb/IIIa Antagonistic Activity and Human Platelet Aggregation Inhibitory Activity
GP IIb/IIIa antagonistic activity was measured for the compounds according to the present invention. The measurement of the GP IIb/IIIa antagonistic activity was carried out according to the method described in Pharmacological Test 2 in WO 94/21599.

[2] = test system: human vascular smooth muscle cells adhering to immobilized human vitronectin; experiment: Inhibitory activity against adhesion of human vascular smooth muscle cells to vitronectin; format: cell-based; conditions: 1.5 h; human vitronectin-coated plate, 90 min
Experimental: Inhibitory Activity Against Adhesion of Human Vascular Smooth Muscle Cells to Vitronectin
The adhesion of human vascular smooth muscle cells =+to immobilized human vitronectin was measured in accordance with the method of Liaw et al. (Liaw L, Almeida M, Hart C E, Schwartz S M, and Giachelli C M, Circulation Research, 74 (2), 214-224 (1994)).
A Dulbecco's phosphate buffer (Dulbecco's PBS(−), Nissui Pharmaceutical Co., Ltd.) solution of human plasma-derived vitronectin (CALBIOCHEM) adjusted to a concentration of 4 μg/ml was first added to wells (50 μl/well) of a microplate (Maxisorp, Nunc), and a reaction for immobilization was allowed to proceed at 4° C. overnight. After washing twice with 150 μl of Dulbecco's phosphate buffer, a Dulbecco's phosphate buffer containing 10 mg/ml of bovine serum albumin (SIGMA) was added, followed by blocking at 37° C. for one hr. The assay plate was washed twice with 150 μl of Dulbecco's phosphate buffer.
Separately, human vascular smooth muscle cells cultivated at 37° C. under 5% carbon dioxide in a medium for vascular smooth muscle cells (Clonetics) were separated using a Dulbecco's phosphate buffer containing trypsin-EDTA (GIBCO BRL), washed with Dulbecco's phosphate buffer, and then suspended in a Dulbecco's modified Eagle's basal medium (Nissui Pharmaceutical Co., Ltd.) containing 0.1% bovine serum albumin to a concentration of 5×10^5/ml.
Next, 50 μl of a Dulbecco's modified Eagle's basal medium containing 10 mg/ml of bovine serum albumin with a medicament added thereto was added to the wells of the human vitronectin-coated assay microplate, followed by pre-cultivation under 5% carbon dioxide at 37° C. for 10 min. Thereafter, 50 μl of the medium with human vascular smooth muscle cells suspended therein was added thereto, and the plate was thoroughly stirred. A reaction was allowed to proceed under 5% carbon dioxide at 37° C. for 90 min. The reaction solution containing non-adherent cells were then removed, followed by washing three times with Dulbecco's phosphate buffer. For the adhered cells, 100 μl of a Dulbecco's phosphate buffer containing 4% paraformaldehyde (Wako Pure Chemical Industries, Ltd.) was added, and immobilization was allowed to proceed at room temperature for 10 min. Next, 100 μl of a Dulbecco's phosphate buffer containing 0.5% Toluidine Blue (Croma) and 4% paraformaldehyde was added, and staining was allowed to proceed at room temperature for 5 min, followed by thorough washing with distilled water. The inside of the wells was then air-dried, and a 1% aqueous sodium dodecylsulfate solution was then added to perform cytolysis. The absorbance of the microplate thus obtained was measured at 595 nm. […] The inhibition was calculated by the following equation. IC50 was determined from a primary regression line of the logarithm of each concentration of the test compound and the logarithm of (100−inhibition)/inhibition. [formula]

[3] = Acute toxicity test in mice; format: in vivo; conditions: intravenously administered to three mice at a dose of 50 mg/kg
Experimental: The compound of Example 52 was intravenously administered to three mice at a dose of 50 mg/kg.

SMILES: O=C(NC[C@H](NS(=O)(=O)c1ccccc1)C(=O)O)c1ccc(N2CCC(NC3=NCCCN3)CC2)c(F)c1 [Example 52, (2S)-Benzenesulfonylamino-3-[3-fluoro-4-{4-(1,4,5,6-tetrahydropyrimidin-2-ylamino)piperidin-1-yl}-benzoylamino]propionic acid]
- IC50 [1]: ≤ 1 nM
- IC50 (GP IIb/IIIa): ≤ 1 nM
- IC50 [2]: ≤ 70 nM
- survival in acute toxicity test [3]: all the mice survived
- change in weight in acute toxicity test ([3]; compared with solvent group): the same as a group of mice to which only a solvent had been administrered
